Patent US8574563B2 (Bristol-Myers Squibb Company, priority 2006, dated 2013)
Where two headings read alike, the source gives them in different places.

Test system: HCV 1b-377-neo replicon cells
Test: HCV replicon assay, HCV 1b-377-neo replicon cells (1b FRET)
Type: cell-based, Hepatitis C virus genotype 1b
Settings: HCV 1b-377-neo replicon cells, HCV 1b genotype, read-out: EC50 range against HCV 1b (Table 2, Range)
Method: An HCV Replion assay was utilized in the present disclosure, and was prepared, conducted and validated as described in commonly owned PCT/US2006/022197 and in O'Boyle et. al. Antimicrob Agents Chemother. 2005 April; 49(4):1346-53.
HCV 1b-377-neo replicon cells were used to test the currently described compound series as well as cells resistant to compound A due to a Y2065H mutation in NS5A (described in application PCT/US2006/022197). The compounds tested were determined to have more than 10-fold less inhibitory activity on cells resistant to compound A than wild-type cells indicating a related mechanism of action between the two compound series. Thus, the compounds of the present disclosure can be effective to inhibit the function of the HCV NS5A protein and are understood to be as effective in combinations as previously described in application PCT/US2006/022197 and commonly owned WO/04014852. Further, the compounds of the present disclosure can be effective against the HCV 1b genotype. It should also be understood that the compounds of the present disclosure can inhibit multiple genotypes of HCV. […] In one embodiment compounds of the present disclosure are active against the 1a, 1b, 2a, 2b, 3a, 4a, and 5a genotypes.

Row | Structure (SMILES) | EC50 (Hepatitis C virus) [nM] | EC50 [nM]
1 | COC(=O)NC1CCC(C(=O)N2CCC[C@H]2c2ncc(-c3ccc(-c4ccc(-c5cnc([C@@H]6CCCN6C(=O)C6CCC(NC(=O)OC)C6)[nH]5)cc4)cc3)[nH]2)C1 (stereo in doubt) [cj-149, dimethyl (4,4′-biphenyldiylbis(1H-imidazole-5,2-diyl(2S)-2,1-pyrrolidinediylcarbonyl(1R,3S)-3,1-cyclopentanediyl))biscarbamate] | 1 to 99 | –
2 | CN(C)[C@@H](C(=O)N1CCC[C@H]1c1ncc(-c2ccc(-c3ccc(-c4cnc([C@@H]5CCCN5C(=O)[C@@H](c5ccccc5)N(C)C)[nH]4)cc3)cc2)[nH]1)c1ccccc1 [Example 1, (1R,1′R)-2, 2′-(4,4′-biphenyldiylbis (1H-imidazole-5,2-diyl(2S)-2,1-pyrrolidinediyl))bis(N,N-dimethyl-2-oxo-1-phenylethanamine)] | 0.001 to 0.999 | –
3 | O=C([C@H](O)c1ccccc1)N1CCC[C@H]1c1ncc(-c2ccc(-c3ccc(-c4cnc([C@@H]5CCCN5C(=O)[C@H](O)c5ccccc5)[nH]4)cc3)cc2)[nH]1 [Example 2, (1R,1′R)-2,2′-(4,4′-biphenyldiylbis(1H-imidazole-5,2-diyl(2S)-2,1-pyrrolidinediyl))bis(2-oxo-1-phenylethanol)] | 0.001 to 0.999 | –
4 | C[C@@](O)(C(=O)N1CCC[C@H]1c1ncc(-c2ccc(-c3ccc(-c4cnc([C@@H]5CCCN5C(=O)[C@@](C)(O)c5ccccc5)[nH]4)cc3)cc2)[nH]1)c1ccccc1 [Example 3, (2S,2′S)-1,1′-(4,4′-biphenyldiylbis(1H-imidazole-5,2-diyl(2)-2,1-pyrrolidinediyl))bis(1-oxo-2-phenyl-2-propanol)] | – | 0.001 to 0.999
5 | COC(=O)N[C@@H](C(=O)N1CCC[C@H]1c1ncc(-c2ccc(-c3ccc(-c4cnc([C@@H]5CCCN5C(=O)[C@H](NC(=O)OC)c5ccccc5)[nH]4)cc3)cc2)[nH]1)c1ccccc1 [Example 4, dimethyl (4,4′-biphenyldiylbis(1H-imidazole-5,2-diyl(2S)-2,1-pyrrolidinediyl((1R)-2-oxo-1-phenyl-2,1-ethanediyl)))biscarbamate] | 0.001 to 0.999 | –
6 | CN(C)[C@H](C(=O)N1CCC[C@H]1c1ncc(-c2ccc(-c3ccc(-c4cnc([C@@H]5CCCN5C(=O)[C@H](c5ccccc5)N(C)C)[nH]4)cc3)cc2)[nH]1)c1ccccc1 [Example 5, (1S,1′S)-2,2′-(4,4′-biphenyldiylbis(1H-imidazole-5,2-diyl(2S)-2,1-pyrrolidinediyl))bis(N,N-dimethyl-2-oxo-1-phenylethanamine)] | 1 to 99 | –
7 | O=C(c1ccccc1)N1CCC[C@H]1c1ncc(-c2ccc(-c3ccc(-c4cnc([C@@H]5CCCN5C(=O)c5ccccc5)[nH]4)cc3)cc2)[nH]1 [Example 6, 5,5′-(4,4′-biphenyldiyl)bis(2-((2S)-1-benzoyl-2-pyrrolidinyl)-1H-imidazole)] | 1 to 99 | –
8 | O=C(Cc1ccccc1)N1CCC[C@H]1c1ncc(-c2ccc(-c3ccc(-c4cnc([C@@H]5CCCN5C(=O)Cc5ccccc5)[nH]4)cc3)cc2)[nH]1 [Example 7, 5,5′-(4,4′-biphenyldiyl)bis(2-((2)S-1-(phenylacetyl)-2-pyrrolidinyl)-1H-imidazole)] | – | 0.001 to 0.999
9 | CO[C@@H](C(=O)N1CCC[C@H]1c1ncc(-c2ccc(-c3ccc(-c4cnc([C@@H]5CCCN5C(=O)[C@H](OC)c5ccccc5)[nH]4)cc3)cc2)[nH]1)c1ccccc1 [Example 8, 5,5′-(4,4′-biphenyldiyl)bis(2-((2S)-1-((2R)-2-methoxy-2-phenylacetyl)-2-pyrrolidinyl)-1H-imidazole)] | 0.001 to 0.999 | –
10 | O=C([C@H](O)Cc1ccccc1)N1CCC[C@H]1c1ncc(-c2ccc(-c3ccc(-c4cnc([C@@H]5CCCN5C(=O)[C@H](O)Cc5ccccc5)[nH]4)cc3)cc2)[nH]1 [Example 9, (2R,2′R)-1,1′-(4,4′-biphenyldiylbis(1H-imidazole-5,2-diyl(2S)-2,1-pyrrolidindiyl))bis(1-oxo-3-phenyl-2-propanol)] | 1 to 99 | –
11 | CCC(=O)N1CCC[C@H]1c1ncc(-c2ccc(-c3ccc(-c4cnc([C@@H]5CCCN5C(=O)CC)[nH]4)cc3)cc2)[nH]1 [Example 10, 5,5′-(4,4′-biphenyldiyl)bis(2-((2S)-1-propionyl-2-pyrrolidinyl)-1H-imidazole)] | 1 to 99 | –
12 | O=C(C1CC1)N1CCC[C@H]1c1ncc(-c2ccc(-c3ccc(-c4cnc([C@@H]5CCCN5C(=O)C5CC5)[nH]4)cc3)cc2)[nH]1 [Example 11, 5,5′-(4,4′-biphenyldiyl)bis(2-((2S)-1-(cyclopropylcarbonyl)-2-pyrrolidinyl)-1H-imidazole)] | 1 to 99 | –
13 | O=C(CC1CC1)N1CCC[C@H]1c1ncc(-c2ccc(-c3ccc(-c4cnc([C@@H]5CCCN5C(=O)CC5CC5)[nH]4)cc3)cc2)[nH]1 [Example 12, 5,5′-(4,4′-biphenyldiyl)bis(2-((2S)-1-(cyclopropylacetyl)-2-pyrrolidinyl)-1H-imidazole)] | 1 to 99 | –
14 | O=C([C@H]1CCCO1)N1CCC[C@H]1c1ncc(-c2ccc(-c3ccc(-c4cnc([C@@H]5CCCN5C(=O)[C@H]5CCCO5)[nH]4)cc3)cc2)[nH]1 [Example 13, 5,5′-(4,4′-biphenyldiyl)bis(2-((2S)-1-((2R)-tetrahydro-2-furanylcarbonyl)-2-pyrrolidinyl)-1H-imidazole)] | 1 to 99 | –
15 | CN(C)CC(=O)N1CCC[C@H]1c1ncc(-c2ccc(-c3ccc(-c4cnc([C@@H]5CCCN5C(=O)CN(C)C)[nH]4)cc3)cc2)[nH]1 [Example 14, 2,2′-(4,4′-biphenyldiylbis(1H-imidazole-5,2-diyl(2S)-2,1-pyrrolidinediyl))bis(N,N-dimethyl-2-oxoethanamine)] | 100 to 999 | –
16 | C[C@@H](O)C(=O)N1CCC[C@H]1c1ncc(-c2ccc(-c3ccc(-c4cnc([C@@H]5CCCN5C(=O)[C@@H](C)O)[nH]4)cc3)cc2)[nH]1 [Example 15, (2R,2′R)-1,1′-(4,4′-biphesnyldiylbis(1H-imidazole-5,2-diyl(2S)-2,1-pyrrolidinediyl))bis(1-oxo-2-propanol)] | – | 1 to 99
17 | CC(C)[C@@H](O)C(=O)N1CCC[C@H]1c1ncc(-c2ccc(-c3ccc(-c4cnc([C@@H]5CCCN5C(=O)[C@H](O)C(C)C)[nH]4)cc3)cc2)[nH]1 [Example 16, (2R,2′R)-1,1′-(4,4′-biphenyldiylbis(1H-imidazole-5,2-diyl(2S)-2,1-pyrrolidinediyl))bis(3-methyl-1-oxo-2-butanol)] | 1 to 99 | –
18 | O=C([C@@H](c1ccccc1)N1CCCC1)N1CCC[C@H]1c1ncc(-c2ccc(-c3ccc(-c4cnc([C@@H]5CCCN5C(=O)[C@@H](c5ccccc5)N5CCCC5)[nH]4)cc3)cc2)[nH]1 [Example 17, 5,5′-(4,4′-biphenyldiyl)bis(2-((2S)-1-((2R)-2-phenyl-2-(1-pyrrolidinyl)acetyl)-2-pyrrolidinyl)-1H-imidazole)] | 0.001 to 0.999 | –
19 | O=C([C@@H](c1ccccc1)N1CCOCC1)N1CCC[C@H]1c1ncc(-c2ccc(-c3ccc(-c4cnc([C@@H]5CCCN5C(=O)[C@@H](c5ccccc5)N5CCOCC5)[nH]4)cc3)cc2)[nH]1 [Example 18, 4,4′-(4,4′-biphenyldiylbis(1H-imidazole-5,2-diyl(2S)-2,1-pyrrolidinediyl((1R)-2-oxo-1-phenyl-2,1-ethanediyl)))dimorpholine] | 0.001 to 0.999 | –
20 | O=C(C(c1ccccc1)N1CC[C@H](F)C1)N1CCC[C@H]1c1ncc(-c2ccc(-c3ccc(-c4cnc([C@@H]5CCCN5C(=O)C(c5ccccc5)N5CC[C@H](F)C5)[nH]4)cc3)cc2)[nH]1 (stereo partly drawn) [Example 19, 5,5′-(4,4′-biphenyldiyl)bis(2-((2S)-1-(((3S)-3-fluoro-1-pyrrolidinyl)(phenyl)acetyl)-2-pyrrolidinyl)-1H-imidazole)] | – | 0.001 to 0.999
21 | O=C(C(c1ccccc1)N1CC[C@H](F)C1)N1CCC[C@H]1c1ncc(-c2ccc(-c3ccc(-c4cnc([C@@H]5CCCN5C(=O)C(c5ccccc5)N5CC[C@H](F)C5)[nH]4)cc3)cc2)[nH]1 (stereo partly drawn) [Example 20, 5,5′-(4,4′-biphenyldiyl)bis(2-((2S)-1-(((3S)-3-fluoro-1-pyrrolidinyl)(phenyl)acetyl)-2-pyrrolidinyl)-1H-imidazole)] | – | 1 to 99
22 | CCN(CC)[C@@H](C(=O)N1CCC[C@H]1c1ncc(-c2ccc(-c3ccc(-c4cnc([C@@H]5CCCN5C(=O)[C@@H](c5ccccc5)N(CC)CC)[nH]4)cc3)cc2)[nH]1)c1ccccc1 [Example 21, (1R,1′R)-2,2′-(4,4′-biphenyldiylbis(1H-imidazole-5,2-diyl(2S)-2,1-pyrrolidinediyl))bis(N,N-diethyl-2-oxo-1-phenylethanamine)] | 0.001 to 0.999 | –
23 | CCN(C)[C@@H](C(=O)N1CCC[C@H]1c1ncc(-c2ccc(-c3ccc(-c4cnc([C@@H]5CCCN5C(=O)[C@@H](c5ccccc5)N(C)CC)[nH]4)cc3)cc2)[nH]1)c1ccccc1 [Example 22, (1R,1′R)-2,2′-(4,4′-biphenyldiylbis(1H-imidazole-5,2-diyl(2S)-2,1-pyrrolidinediyl))bis(N-ethyl-N-methyl-2-oxo-1-phenylethanamine)] | 0.001 to 0.999 | –
24 | O=CN[C@@H](C(=O)N1CCC[C@H]1c1ncc(-c2ccc(-c3ccc(-c4cnc([C@@H]5CCCN5C(=O)[C@H](NC=O)c5ccccc5)[nH]4)cc3)cc2)[nH]1)c1ccccc1 [Example 23, N,N′-(4,4′-biphenyldiylbis(1H-imidazole-5,2-diyl(2S)-2,1-pyrrolidinediyl((1R)-2-oxo-1-phenyl-2,1-ethanediyl)))diformamide] | 0.001 to 0.999 | –
